Results: US9333193B2, “Compositions and methods for treating tuberculosis” (priority 2010, dated 2016)
Converted amounts (≈) assume the structure as drawn. Like-named read-outs stand apart in the source and are kept apart here.

Experiments:
M. tuberculosis = test: microbe, parasite or virus in culture; type: cell-based, Mycobacterium tuberculosis; design: % Inhibit growth, H37Rv / % Inhibit growth, Susceptible / % Inhibit growth, MDR / % Inhibit growth, XDR / inhibition: dose or concentration left out as unconfirmed; details: for inhibition: Mycobacterium tuberculosis; for % Inhibit growth, MDR: MDR strain; for % Inhibit growth, Susceptible: Susceptible strain; for % Inhibit growth, XDR: XDR strain; for % Inhibit growth, H37Rv: strain H37Rv
[1] = system: Mycobacterium smegmatis mc2155; test: Anti-mycobacterial activity of nitazoxanides, MIC in Middlebrook 7H9; type: cell-based; details: Middlebrook 7H9, 37° C.; for MIC: Mycolicibacterium smegmatis, MC2155, read-out: Minimal Inhibitory Concentration, M. smegmatis
Method: (§1) (1) Strains: Mycobacterium smegmatis mc2155, Mycobacterium chelonae EOP-1, Mycobacterium marinum ATCC 927, Mycobacterium avium Va14(T), and Mycobacterium abscessus AAy-P-1).
(§2) (2) Medium: Middlebrook 7H9 containing 0.5% (vol/vol) glycerol and 10% (vol/vol) oleic acid-albumin.
(§3) (3) Incubation Temperature: 37° C., except M. marinum 30° C.
(§4) (4) Nitazoxanides: Precipitates were present in wells of nitazoxanides with high concentrations (250-31 μg/mL) except for 162080, 162088, 16b2026, and 16b2031.
(5) Decolorization: Almost all the yellow nitazoxanides, namely 16b1090, 16b1092 and 16b1093, 16b1094, 16b2023, 16b2025, and 16b2026 were decolorized by M. smegmatis strain mc2155. None of the other mycobacterial strains decolorized the compounds. Note that the compound numbers are also referred to herein with the prefix VPC.
(§5) The strains used were Mycobacterium smegmatis mc2155, Mycobacterium chelonae EOP-1, Mycobacterium marinum ATCC 927, Mycobacterium avium Va14(T), and Mycobacterium abscessus AAy-P-1. The medium use was Middlebrook 7H9 containing 0.5% (vol/vol) glycerol and 10% (vol/vol) oleic acid-albumin. Incubation Temperature was 37° C., except for M. marinum at 30° C. For nitazoxanides, precipitates were present in wells of nitazoxanides with high concentrations (250-31 μg/mL) except for 162080, 162088, 16b2026, and 16b2031.
Decolorization: Almost all the yellow nitazoxanides, namely 16b1090, 16b1092 and 16b1093, 16b1094, 16b2023, 16b2025, and 16b2026 were decolorized by M. smegmatis strain mc2155. None of the other mycobacterial strains decolorized the compounds.

[2] = system: Mycobacterium avium Va14(T); test: as above; type: cell-based; details: Middlebrook 7H9, 37° C.; for MIC: Mycobacterium avium, read-out: Minimal Inhibitory Concentration, M. avium
Method: as §1, §2, §3, §4, §5

[3] = system: Mycobacterium chelonae EOP-1; test: as above; type: cell-based; details: Middlebrook 7H9, 37° C.; for MIC: read-out: Minimal Inhibitory Concentration, M. chelonae
Method: as §1, §2, §3, §4, §5

[4] = system: Mycobacterium marinum ATCC 927; test: as above; type: cell-based; details: Middlebrook 7H9, 30° C.; for MIC: Mycobacterium marinum, ATCC927, read-out: Minimal Inhibitory Concentration, M. marinum
Method: as §1, §2, §3, §4, §5

[5] = system: Mycobacterium abscessus AAy-P-1; test: as above; type: cell-based; details: Middlebrook 7H9, 37° C.; for MIC: Mycobacteroides abscessus, AAYP1, read-out: Minimal Inhibitory Concentration, M. abscessus
Method: as §1, §2, §3, §4, §5

[6] = system: Mycobacterium tuberculosis; test: microbe, parasite or virus in culture; details: agar proportion
[7] = read-out: % Inhibit growth, MDR
[8] = read-out: % Inhibit growth, XDR

Structure (SMILES)	inhibition (M. tuberculosis; [7])	inhibition (M. tuberculosis; [8])	MIC [1]	MIC [2]	MIC [3]	MIC [4]	MIC [5]	% Inhibit growth, MDR (M. tuberculosis; agar proportion method)	% Inhibit growth, Susceptible (M. tuberculosis; agar proportion method)	% Inhibit growth, XDR (M. tuberculosis; agar proportion method)	% Inhibit growth, H37Rv (M. tuberculosis; agar proportion method)	further results
O=C(Nc1sc([N+](=O)[O-])cc1[N+](=O)[O-])c1ccoc1 [VPC16b1094]	100%	100%	16 µg/mL (≈ 56.5 µM)	16 µg/mL (≈ 56.5 µM)	2 µg/mL (≈ 7.06 µM)	4 µg/mL (≈ 14.1 µM)	2 µg/mL (≈ 7.06 µM)	–	–	–	–	Potency against M. tuberculosis in words (Table 1) (M. tuberculosis; agar proportion method): most potent; MIC ([6]; H37RV, isolate H37Rv (Reference)): 4000 µg/mL (≈ 14100 µM); MIC ([6]; isolate 234 (MDR-TB)): 4000 µg/mL (≈ 14100 µM); MIC ([6]; isolate 283 (susceptible)): 4000 µg/mL (≈ 14100 µM); MIC ([6]; isolate 565 (MDR-TB)): 4000 µg/mL (≈ 14100 µM); MIC ([6]; isolate 694 (MDR-TB)): 4000 µg/mL (≈ 14100 µM); MIC ([6]; isolate 750 (MDR-TB)): 4000 µg/mL (≈ 14100 µM); MIC ([6]; isolate 823 (XDR-TB)): 4000 µg/mL (≈ 14100 µM); MIC ([6]; isolate 971 (MDR-TB)): 4000 µg/mL (≈ 14100 µM)
O=C(Nc1sc([N+](=O)[O-])cc1[N+](=O)[O-])c1cc(C(F)(F)F)ccc1Cl [VPC16b2026, 2-Chloro-N-(3,5-dinitrothiophen-2-yl)-5-(trifluoromethyl)benzamide]	–	–	31 µg/mL (≈ 78.3 µM)	16 µg/mL (≈ 40.4 µM)	4 µg/mL (≈ 10.1 µM)	8 µg/mL (≈ 20.2 µM)	0.25 µg/mL (≈ 0.632 µM)	–	–	–	–	–
NCCOc1ccccc1C(=O)Nc1sc([N+](=O)[O-])cc1[N+](=O)[O-] [VPC16b2031, 2-(2-Aminoethoxy)-N-(3,5-dinitrothiophen-2-yl)benzamide]	–	–	63 µg/mL (≈ 179 µM)	63 µg/mL (≈ 179 µM)	125 µg/mL (≈ 355 µM)	16 µg/mL (≈ 45.4 µM)	250 µg/mL (≈ 710 µM)	–	–	–	–	–
O=C(Nc1ncc([N+](=O)[O-])s1)c1cc2ccccc2s1 [VPC161180]	–	–	–	–	–	–	–	0%	0%	50%	80%	–
O=C(Nc1ncc([N+](=O)[O-])s1)c1cccc(C(F)(F)F)c1 [VPC161183, N-(5-Nitrothiazol-2-yl)-3-(trifluoromethyl)benzamide]	70%	50%	–	–	–	–	–	–	–	–	–	–
CC(C)(C)OC(=O)Nc1ccccc1C(=O)Nc1ncc([N+](=O)[O-])s1 [VPC162047, tert-Butyl 2-(5-nitrothiazol-2-ylcarbamoyl)phenylcarbamate]	92%	50%	–	–	–	–	–	–	–	–	–	–
CCCCCC(=O)Nc1nc(Cl)c([N+](=O)[O-])s1 [VPC162080]	–	–	–	–	–	–	–	95%	73%	90%	90%	Minimal Inhibitory Concentration, M. smegmatis [1]: 125 µg/mL; Minimal Inhibitory Concentration, M. avium [2]: 125 µg/mL; Minimal Inhibitory Concentration, M. chelonae [3]: 16 µg/mL; Minimal Inhibitory Concentration, M. marinum [4]: 16 µg/mL; Minimal Inhibitory Concentration, M. abscessus [5]: 0.25 µg/mL
O=C(Nc1nc(Cl)c([N+](=O)[O-])s1)c1ccccc1 [VPC162087]	–	–	–	–	–	–	–	100%	97%	100%	97%	Minimal Inhibitory Concentration, M. smegmatis [1]: 31 µg/mL; Minimal Inhibitory Concentration, M. avium [2]: 125 µg/mL; Minimal Inhibitory Concentration, M. chelonae [3]: 16 µg/mL; Minimal Inhibitory Concentration, M. marinum [4]: 16 µg/mL; Minimal Inhibitory Concentration, M. abscessus [5]: >250 µg/mL
O=C(Nc1nc(Cl)c([N+](=O)[O-])s1)c1cccc(C(F)(F)F)c1 [VPC162088]	90%	70%	31 µg/mL (≈ 88.1 µM)	250 µg/mL (≈ 711 µM)	63 µg/mL (≈ 179 µM)	31 µg/mL (≈ 88.1 µM)	0.5 µg/mL (≈ 1.42 µM)	–	–	–	–	–
